Experimental data: patent US20070231202A1 (priority 2006, published 2007)

How the values were obtained:
[1] = system: prions (10% brain homogenates from hamsters with scrapie); type: in vivo, hamster; details: hydrogen peroxide vapor of higher concentrations and/or higher plasma density
[2] = system: prions; details: 59% solution admitted into sterilization chamber under vacuum, vapor at one point excited into plasma

`OO` [hydrogen peroxide] was tested, and the “inactivating prions, rendering article non-infectious for prion diseases” value [1] was “effective in inactivating prions” and the “inactivation of prions on the instruments” value [2] was “failed to sufficiently inactivate prions”.
